Columns and labels:
A2780cp = assay: CellTiter-Glo cell viability assay; format: cell-based, Human; conditions: A2780C/P; A2780cp, OVARIAN, Platinum res-Human Ovarian, 72 hours
Description: (§1) Cell viability in the presence of varying concentrations of the above listed compounds at different time points was used to assess cytotoxicity and the effect of the compounds on cell proliferation.
(§2) Cell viability was measured by the CellTiter-Glo® cell viability assay from Promega (Madison, Wis.). The CellTiter-Glo® Luminescent Cell Viability Assay is a homogeneous method to determine the number of viable cells in culture based on quantitation of the ATP present, which signals the presence of metabolically active cells. Following treatment, CellTiter-Glo® is added to treatment wells and incubated at 37° C. luminescence values were measured at using a Molecular Devices Spectramax microplate reader
(§3) Cells were grown to 70% confluency, trypsinized, counted, and seeded in 96 well flat-bottom plates at a final concentration of 2.5×10^3-5×10^3 cells/well (Day 0). Cells were allowed to incubate in growth media for 24 hours. Treatment with the test agents or standard agents began on Day 1 and continued for 72 hours. At the 72-hour timepoint, treatment containing media was removed. Viable cell numbers are quantified by the CellTiter-Glo® cell viability assay as described above. Results from these studies were used to calculate an IC50 value (concentration of drug that inhibits cell growth by 50 percent of control) for each compound.
(§4) For single agent and combination studies, data from each experiment was collected and expressed as % Cell Growth using the following calculation: % Cell Growth=(ftest/fvehicle)×100
(§5) Where test is the fluorescence of the tested sample, and fvehicle is the fluorescence of the vehicle in which the drug is dissolved. Dose response graphs and IC50 values were generated using Prism 6 software (GraphPad) using the following equation: Y=(Top-Bottom)/(1+10^((logIC^50^-X)-HillSlope))

A2780 = assay: CellTiter-Glo cell viability assay; format: cell-based, Human; conditions: A2780, OVARIAN, Human Ovarian, 72 hours
Description: as §1, §2, §3, §4, §5

BIN-67 = assay: CellTiter-Glo cell viability assay; format: cell-based, Human; conditions: BIN-67, OVARIAN, Human Small Cell Carcinoma of the Ovary, 72 hours
Description: as §1, §2, §3, §4, §5

COV434 = assay: CellTiter-Glo cell viability assay; format: cell-based, Human; conditions: COV434, OVARIAN, Human Ovarian Granulosa, 72 hours
Description: as §1, §2, §3, §4, §5

IGROV-1 = assay: CellTiter-Glo cell viability assay; format: cell-based, Human; conditions: IGROV-1, OVARIAN, Human Ovarian Adenocarcinoma, 72 hours
Description: as §1, §2, §3, §4, §5

OVCAR-3 = assay: CellTiter-Glo cell viability assay; format: cell-based, Human; conditions: OVCAR-3, OVARIAN, Human Ovarian Carcinoma, 72 hours
Description: as §1, §2, §3, §4, §5

OVCAR-8 = assay: CellTiter-Glo cell viability assay; format: cell-based, Human; conditions: OVCAR-8, OVARIAN, Human Ovarian Carcinoma, 72 hours
Description: as §1, §2, §3, §4, §5

SCCOHT-1 = assay: CellTiter-Glo cell viability assay; format: cell-based, Human; conditions: SCCOHT-1, OVARIAN, Human Small Cell Carcinoma of the Ovary, 72 hours
Description: as §1, §2, §3, §4, §5

SKOV-3 = assay: CellTiter-Glo cell viability assay; format: cell-based, Human; conditions: SK-OV-3; SKOV-3, OVARIAN, Human Ovarian Carcinoma, 72 hours
Description: as §1, §2, §3, §4, §5

BT-20 = assay: CellTiter-Glo cell viability assay; format: cell-based; conditions: Homo sapiens; BT-20, BREAST, Carcinoma, 72 hours
Description: as §1, §2, §3, §4, §5

G401 = assay: CellTiter-Glo cell viability assay; format: cell-based; conditions: Homo sapiens, G-401; G401, RENAL, Rhabdoid Tumor, 72 hours
Description: as §1, §2, §3, §4, §5

HepG2 = assay: CellTiter-Glo cell viability assay; format: cell-based; conditions: Homo sapiens; HepG2, LIVER, HCC, 72 hours
Description: as §1, §2, §3, §4, §5

KMM-1 = assay: CellTiter-Glo cell viability assay; format: cell-based; conditions: KMM-1, HEMATOPIETIC, MM, 72 hours
Description: as §1, §2, §3, §4, §5

L363 = assay: CellTiter-Glo cell viability assay; format: cell-based; conditions: Homo sapiens, L-363; L363, HEMATOPIETIC, MM, 72 hours
Description: as §1, §2, §3, §4, §5

MOLM-13 = assay: CellTiter-Glo cell viability assay; format: cell-based; conditions: Homo sapiens; MOLM-13, HEMATOPIETIC, AML, 72 hours
Description: as §1, §2, §3, §4, §5

SKUT-1 = assay: CellTiter-Glo cell viability assay; format: cell-based; conditions: Homo sapiens, SK-UT-1; SKUT-1, ENDOMETRIAL, Uterine, 72 hours
Description: as §1, §2, §3, §4, §5

4T1 = assay: CellTiter-Glo cell viability assay; format: cell-based, Murine; conditions: Mus musculus; 4T1, BREAST, Murine Breast Tumor, 72 hours
Description: as §1, §2, §3, §4, §5

CT26 = assay: CellTiter-Glo cell viability assay; format: cell-based, Murine; conditions: Mus musculus; CT26, MURINE COLON, Colon, 72 hours
Description: as §1, §2, §3, §4, §5

GL261 = assay: CellTiter-Glo cell viability assay; format: cell-based, Murine; conditions: Mus musculus; GL261, MURINE BRAIN, Murine Glioma, 72 hours
Description: as §1, §2, §3, §4, §5

L1210 = assay: CellTiter-Glo cell viability assay; format: cell-based, Murine; conditions: Mus musculus; L1210, HEMATOPIETIC, Murine Leukemia, 72 hours
Description: as §1, §2, §3, §4, §5

MC38 = assay: CellTiter-Glo cell viability assay; format: cell-based, Murine; conditions: Mus musculus, MC-38; MC38, MURINE COLON, Colon, 72 hours
Description: as §1, §2, §3, §4, §5

[1] = Pharmacokinetics studies in mice; format: in vivo; conditions: PO-5 mg/kg
Excerpt: Volume of distribution is one of the most important pharmacokinetic properties of a drug candidate and for an anticancer drug can result in increased drug distribution to the tumor.

CC[C@@H](C(=O)Nc1ncc(C(=O)NO)s1)c1ccc(OC)cc1 [#1b, (R)—N-hydroxy-2-(2-(4-methoxyphenyl)butanamido)thiazole-5-carboxamide]
IC50 (A2780cp): 378 nM
IC50 (A2780): 219 nM
IC50 (BIN-67): 450 nM
IC50 (COV434): 339 nM
IC50 (IGROV-1): 490 nM
IC50 (OVCAR-3): 244 nM
IC50 (OVCAR-8): 113 nM
IC50 (SCCOHT-1): 185 nM
IC50 (SKOV-3): 509 nM
IC50 (BT-20): 759 nM
IC50 (G401): 407 nM
IC50 (HepG2): 631 nM
IC50 (KMM-1): 105 nM
IC50 (L363): 170 nM
IC50 (MOLM-13): 209 nM
IC50 (SKUT-1): 1260 nM
IC50 (4T1): 185 nM
IC50 (CT26): 3210 nM
IC50 (GL261): 1200 nM
IC50 (L1210): 324 nM
IC50 (MC38): 493 nM
AUC % Extrap [1]: 1.02%
CI/Fobs [1]: 912 mL/min/kg
AUC(0-inf) ([1]; mouse, in vivo): 91.4 ng·h/mL
AUC(0-t) ([1]; mouse, in vivo): 90.4 ng·h/mL
Cmax ([1]; mouse, in vivo): 20.9 ng/mL
Tmax ([1]; mouse, in vivo): 1 h
bioavailability ([1]; mouse, in vivo): 16.2%
half-life ([1]; mouse, in vivo): 3.6 h
Vd/F ([1]; mouse, in vivo, read-out: Vz/Fobs): 284 L/kg

From patent US11420947B2, “(S)-n-hydroxy-2-(2-(4-methoxyphenyl)butanamido)thiazole-5-carboxamide and pharmaceutically acceptable salts thereof” (TRANSLATIONAL DRUG DEVELOPMENT, LLC, priority 2018, dated 2022)
